In patent publication US9844578B2, “Accelerated healing of eye injuries by angiotensin peptides” (UNIVERSITY OF SOUTHERN CALIFORNIA, priority 2013, dated 2017):
Residues, ends and D or L forms follow the SMILES beside them.

Test system: full-thickness corneal incision
Settings: rabbit, in vivo
Procedure: Animal Preparation and Procedure:
Before each procedure, the rabbits were anesthetized with a subcutaneous injection of a mixture of ketamine hydrochloride (50-80 mg/kg) and xylazine hydrochloride (5-9 mg/kg). The animal was prepared for sterile surgery conducted under aseptic conditions. Periorbital area was cleaned using 5% povidone iodine solution and a drop of this solution was instilled into the fornix and a speculum was used to hold the eyelids open. Using corneal blade (Keratome 3.2 mm), a clear corneal full-thickness tunnel was created in the same manner as in human phacoemulsification surgery. To prevent the globe collapse after corneal tunnel creation, a small amount of viscoelastic was injected in the anterior chamber through a paracentesis. Gentamicin 25 mg, and dexamethasone 2 mg were injected subconjunctivally. Post-operatively, analgesia was administered. Animals allocated to the treatment group were treated with 1 drop (approximately 50 μl) of the active drug (0.03% or 0.3% Nle3 A(1-7) in 2% hydroxyethyl cellulose in 0.05 M phosphate buffer, pH 6.5) under investigation instilled into the conjunctival sac daily (using a dropper throughout the follow-up period. On the other hand, animals allocated to the control group will be treated with vehicle (2% hydroxyethyl cellulose in 0.05 M phosphate buffer, pH 6.5) eyedrops daily throughout the follow-up period.
These ocular follow-up examinations were done while the animal was under anesthesia as described above. Anterior segment imaging includes red free picture and anterior segment fluorescein imaging using Spectralis (Heildelberg Engineering, Germany) where sequential photos are taken after one drop of 10% fluorescein (Akorn Abit Springs, La.) was instilled in the conjunctival sac and a slight pressure was applied to the globe. This is more commonly known as Seidel's test in which fluorescein strip containing 10% fluorescein was applied topically to the affected area and was examined with a cobalt blue filter. At this point, the fluorescein appears green in color. Any changes in color or surface of the fluorescence area indicate the presence of conical leakage. This imaging data were used to assess the degree of corneal wound healing as well as extent of wound leak. Measurement of the intraocular pressure was performed using Tonopen-AVIVA (TPA, Reichert Inc.).
The injury was also imaged using involved using a Heidelberg Retina Tomograph (HRT) instrument. This is a confocal scanning laser ophthalmoscope which was converted into a confocal corneal microscope using an additional microscope lens which attached to the standard lens. This additional lens enabled the HRT to image cells and cell layers within the cornea to allow an in-life phase assessment of the healing and structure of the cornea to allow detailed views of the conical structure and pathology.

Complications: None
Fundus Exam & Fluorescein angiography: Normal
IOP: Normal
change in intraocular pressure: no change
fundus examination and fluorescein angiography: normal
SMILES: CCCC[C@H](NC(=O)[C@H](CCCNC(=N)N)NC(=O)[C@@H](N)CC(=O)O)C(=O)N[C@@H](Cc1ccc(O)cc1)C(=O)N[C@H](C(=O)N[C@@H](Cc1c[nH]cn1)C(=O)N1CCC[C@H]1C(=O)O)[C@@H](C)CC [Nle3-A(1-7), Asp-Arg-Nle-Tyr-Ile-His-Pro] (HELM PEPTIDE1{D.R.[Nle].Y.I.H.P}$$$$V2.0)
